Laboratory results published in PubChem BioAssay AID179 (DTP/NCI, 2004).
Values joined by “and” are separate entries in the source; they are usually repeats but may differ in a detail not shown here. Equal values may be shown once. Active and inactive are the calls of the source.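 How the source made its calls: active means compounds giving half or more protection of infected cells from virus-caused growth loss, again on retest; inactive means the rest.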 Where a SMILES comes first, the peptide text is derived from it. [ ]: non-standard residue; d: D form. The star is where a group is joined. NMeF = CN[CH](Cc1ccccc1)C(=O)O; NMeV = CN[CH](C(=O)O)C(C)C; Boc = CC(C)(C)OC(=O)*

Test system: CEM cells HIV-1 protection, formazan growth assay
Test: NCI AIDS Antiviral Assay
Settings: for IC50: measured here: growth of uninfected CEM cells
Method in brief: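 Human CEM cells, uninfected and HIV-1-infected, exposed to five drug concentrations; growth measured by soluble formazan assay and scored as percent protection from infection, with protecting compounds retested.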

Structure (SMILES): Cc1ccccc1N=Nc1c(-c2ccccc2)nn(C(=O)CC(=O)Nc2cccc(Cl)c2)c1-c1ccccc1
- EC50: > 25.1 µM
- IC50: > 25.1 µM

Structure (SMILES): Cc1nc(N)nc(N)c1-c1ccc(Cl)c(Cl)c1
- EC50: > 200 µM

Structure (SMILES): CN(C)CCC(/C=C/c1ccccc1)=N\Nc1c(F)c(F)c(F)c(F)c1F
- outcome: inactive

Structure (SMILES): CC1=C2CCCC2=C/C(=N/Nc2ccc([N+](=O)[O-])cc2[N+](=O)[O-])CC1
- outcome: inactive

Structure (SMILES): N#CCC1(c2ccc(Cl)cc2)NC(=O)c2ccccc21 (stereo not given)
- EC50: > 200 µM
- IC50: 117 µM

Structure (SMILES): Nc1nc(Cl)cc(NCC2(CO)CC(=O)C2)n1
- EC50: > 200 µM
- IC50: > 200 µM

Structure (SMILES): CC(=O)NNC(=S)N/C=C(/C(=O)c1ccccc1)c1ccccc1
- EC50: > 479 µM
- IC50: 302 µM

Structure (SMILES): CC1=N/C(=C/c2ccc3c(c2)OCO3)C(=O)O1
- EC50: > 155 µM
- IC50: 105 µM

Structure (SMILES): COC(=O)[C@@H]1C[C@]2(CC=O)c3ccccc3N(S(=O)(=O)c3ccccc3)[C@@H]2N1C(=O)OC
- EC50: > 100 µM
- IC50: 70.8 µM

Structure (SMILES): CCOC(=O)C1(C(=O)OCC)C[C@@H](C)[C@@H](O)C1
- EC50: > 200 µM
- IC50: > 200 µM

Structure (SMILES): CCNc1nc(NC(C)C)nc(-c2ccncc2)n1
- EC50: > 200 µM
- IC50: 138 µM

Structure (SMILES): CC(C)C(NC(=O)OC(C)(C)C)C(=O)N(C)C(Cc1ccccc1)C(=O)N(C)C(C(=O)O)C(C)C (stereo not drawn) (Boc-Val-[NMeF]-[NMeV]-OH; configuration not given here)
- EC50: > 200 µM
- IC50: > 200 µM

Structure (SMILES): N#Cc1sc2nc(/C=C3/C=CC=CC3=O)c(O)n2c1N
- EC50: > 200 µM
- IC50: 93.3 µM

Structure (SMILES): c1ccc(CSC(SCc2ccccc2)c2ccccc2)cc1
- EC50: > 200 µM
- IC50: > 200 µM

Structure (SMILES): Cc1ccc(S(=O)(=O)Nc2cccc3c(=O)[nH]cnc23)cc1
- EC50: > 83.2 µM
- IC50: 13.8 µM

Structure (SMILES): C=CC1(c2ccc(OC)cc2)OCCCO1
- EC50: > 200 µM
- IC50: 97.7 µM

Structure (SMILES): Cc1cc(NS(=O)(=O)c2ccc(Nc3c4ccccc4nc4c(C(=O)N5CCN(CCO)CC5)ccc(Cl)c34)cc2)no1
- EC50: > 47.9 µM
- IC50: > 47.9 µM

Structure (SMILES): c1ccc(N2CC3CSc4ccc5ccccc5c4C3=N2)cc1 (stereo not given)
- EC50: > 200 µM
- IC50: > 200 µM

Structure (SMILES): CC1(C)O[C@@H]2[C@@H](COC(=O)c3ccccc3)C[C@@H](C#N)[C@@H]2O1
- EC50: > 200 µM
- IC50: > 200 µM

Structure (SMILES): CC(=O)NC1=C(C)C(=O)c2c(nc3n2CCC3O)C1=N (stereo not given)
- EC50: > 200 µM
- IC50: 24 µM

Structure (SMILES): N=C1C(=O)NC(=O)C1c1ccccc1 (stereo not given)
- EC50: > 200 µM
- IC50: 151 µM

Structure (SMILES): O=C1C(N=Nc2ccc(Br)cc2)Sc2nc3ccccc3n21 (stereo not given)
- EC50: > 200 µM
- IC50: > 200 µM

Structure (SMILES): C[C@@H]1C[C@@H]2C(=O)N(c3ccccc3)C(=O)[C@@H]2c2[nH]c3ccc(Br)cc3c21
- outcome: inactive

Structure (SMILES): CCSC1(SCC)CC(Cc2ccc(OC)cc2)N(C=NC(C)(C)C)C1 (stereo not given)
- EC50: > 240 µM
- IC50: 57.5 µM

Structure (SMILES): COc1ccc(C[C@H]2C(=O)OC[C@@H]2Cc2ccc(OC)c(OC)c2)cc1O
- EC50: > 200 µM
- IC50: 70.8 µM

Structure (SMILES): COc1cccc2c1C(=O)c1c(O)c3c(c(O)c1C2=O)C[C@@](O)(C(C)=O)C[C@@H]3OC1CC(O)C(O)C(C)O1 (stereo not given in full)
- EC50: > 0.2 µM
- IC50: 0.0107 µM

Structure (SMILES): CC(=O)OCC1C(=O)OCC1C(=O)N1Cc2cc3ccccc3nc2C1 (stereo not given)
- EC50: > 20 µM
- IC50: 0.331 µM

Structure (SMILES): CCCCCC=C(c1cc(Cl)c(OC)c(C(=O)N(C)C)c1)c1cc(Cl)c(OC)c(C(=O)N(C)C)c1
- EC50: > 36.3 µM
- IC50: 21.4 µM

Structure (SMILES): OCC(O)C(O)C(O)c1nn(-c2ccccc2)c2nc3ccc(Cl)cc3nc12 (stereo not given)
- EC50: > 112 µM
- IC50: > 112 µM

Structure (SMILES): N#CC1=C(N)OC(c2cccc([N+](=O)[O-])c2)C1(C#N)C#N (stereo not given)
- EC50: > 200 µM
- IC50: 15.5 µM

Structure (SMILES): O=C(c1ccccc1)C(O)(c1ccccc1)C(c1ccccc1)c1ccccc1 (stereo not given)
- EC50: > 26.3 µM
- IC50: > 26.3 µM

Structure (SMILES): O=C(CCl)Nc1ccc(C(=O)N/N=C/c2ccc(Cl)cc2)cc1
- EC50: > 200 µM
- IC50: 2.75 µM

Structure (SMILES): C=CCC1(C)CCCN(Cc2ccccc2)C1=O (stereo not given)
- EC50: > 200 µM
- IC50: 105 µM

Structure (SMILES): CNC(=O)O/N=C/c1cccc(/C=N/OC(=O)NC)c1
- EC50: > 200 µM
- IC50: > 200 µM

Structure (SMILES): O=c1oc2ccc([N+](=O)[O-])cc2cc1Br
- EC50: > 145 µM
- IC50: > 145 µM

Structure (SMILES): CC[C@@]1(O)C[C@H](OC2CC(N(C)C)C(OC3CC(O)C(OC4CCC(=O)C(C)O4)C(C)O3)C(C)O2)c2c(cc3c(c2O)C(=O)c2c(O)ccc(O)c2C3=O)[C@H]1C(=O)OC (stereo not given in full)
- EC50: > 6.31 µM
- IC50: 0.0055 µM and 0.0158 µM

Structure (SMILES): CC1(C)C2CCC1C(=O)[C@@]1(C=CC(=O)CC1)C2 (stereo not given in full)
- EC50: > 200 µM
- IC50: > 200 µM

Structure (SMILES): O=C1/C(=C\c2cccc(Oc3ccccc3)c2)SC(c2ccccc2)N1c1cccc([N+](=O)[O-])c1 (stereo not given)
- EC50: > 200 µM
- IC50: 39.8 µM

Structure (SMILES): Cc1cc(C)c(S(=O)(=O)Sc2nnnn2-c2ccccc2)c(C)c1
- EC50: > 20 µM
- IC50: > 20 µM

Structure (SMILES): O=S(CCc1ccccc1)Nc1ccccc1 (stereo not given)
- EC50: > 200 µM
- IC50: > 200 µM

Structure (SMILES): CCOC(=O)c1c[nH]c2cc3c(cc2c1=O)CCS3
- EC50: > 200 µM
- IC50: 115 µM

Structure (SMILES): C=CC[C@]12C[C@@H](C(=O)OC)N(C(=O)OC)[C@H]1N(S(=O)(=O)c1ccccc1)c1ccccc12
- EC50: > 200 µM
- IC50: 74.1 µM
